{"source": "patent US20110053163A1", "about": "“Biomarker” (BIOVATOR TECHNOLOGIES AB, priority 2007, published 2011)", "type_in_all_cases": "cell-based, human", "key": {"[1]": {"tested_on": "MonoMac-6 cells", "assay": "Cytokine Profile Assay (CPA): neopterin production by stimulated MonoMac-6 cells, ELISA", "conditions": "for neopterin release (in words): chemicals, in the presence or absence of IFN-γ", "text": "(§1) The instructions of the manufacturers were followed. All these tests are enzyme immunoassays (EIA:s). The principle is that microtiter plate wells are labelled with a cytokine specific capture antibody. If cytokine is present in the samples added to the wells it will be captured to the bottom of the well. […] The reaction is thereafter measured as colour developed after addition of a substrate for the enzyme. The values for the test wells are compared with a standard curve obtained by adding a series of known amounts of cytokine. The values obtained for control wells with no substance added are used as background values for cytokine levels.\nThe myelomonocytic cell line MonoMac-6 (obtained from DSMZ, accession number ACC 124, Prof. H. W. L. Ziegler-Heitbrock, Inst. For Immunology, University of Munich, Munich) was cultured in cell culture flasks (Corning). Cells were cultured in RPMI 1640 medium (Gibco BRL), containing 20 mM HEPES and L-glutamine and supplemented with 10% heat-inactivated foetal bovine serum (Gibco BRL), penicillin (100 U/mL; Sigma-Aldrich), streptomycin (100 μg/mL; Sigma-Aldrich), sodium pyruvate (1.0 mM;Gibco BRL), human insulin (9 μg/mL; Gibco BRL) and non-essential amino acids (Gibco BRL) or cultured in Panserin 411 (Pan Biotech) supplemented with penicillin (100 U/mL), streptomycin (100 μg/mL).\nThe cells were split approximately 1:3 the day before stimulation. The stimulation procedure was performed in three steps. The first step was pre-dilution of test substances, to double the final concentration, in cell culture medium. Furthermore, Interferon-γ (IFN-γ) (100 U, PreproTech) was added in the cell culture media for 24 or 48 hours during stimulation of cells with test substances. The number of cells was then determined by trypan blue exclusion and the cells were diluted to twice the final test concentration (2×10^6 cells/mL) if not otherwise indicated and 100 μl of cell suspension was added per well in 96 well tissue culture plates (Corning). Finally, a 100 μl of pre-diluted test substance (triplicate cultures) was added to the tissue culture plates. […] The stimulated cells were cultured at 37° C., 5% CO2, for 24 or 48 hours. The cell suspension was transferred to new cell culture plates and stored at −20° C. until analyzed. Thereafter the cell suspension was analyzed for presence of neopterin and IL-10 by ELISA (IBL-Hamburg) following the manufacturers instructions."}, "[2]": {"tested_on": "MM6-cells", "assay": "CPA: IL-10 levels of stimulated MM6 cells, ELISA", "conditions": "25-200 μg/ml; 48 hours; with IFN-γ 100 U/ml", "text": "as §1, with “levels. […]” for “levels.”\n(§2) The cells were split approximately 1:3 the day before stimulation. […] The number of cells was then determined by trypan blue exclusion and the cells were diluted to twice the final test concentration (2×10^6 cells/mL) if not otherwise indicated and 100 μl of cell suspension was added per well in 96 well tissue culture plates (Corning). […] The cell suspension was transferred to new cell culture plates and stored at −20° C. until analyzed. Thereafter the cell suspension was analyzed for presence of neopterin and IL-10 by ELISA (IBL-Hamburg) following the manufacturers instructions."}, "[3]": {"tested_on": "THP-1 cells", "assay": "CPA: neopterin production by stimulated THP-1 cells", "conditions": "RPMI+10% FCS, 24 hrs, different concentrations", "text": "as §1\nas §2, with “stimulation. The stimulation procedure was performed in three steps. The first step was pre-dilution of test substances, to double the final concentration, in cell culture medium.” for “stimulation.”"}, "[4]": {"conditions": "proteins, RPMI+10% FCS, 24 hrs, with IFN-γ 100 U/ml, over the tested concentrations"}}, "note": "Like-named read-outs stand apart in the source and are kept apart here.", "data": [{"molecule": "gelatin", "values": [{"measurement": "neopterin response (in words)", "setting": "[1]; [4]", "value": "did not induce any neopterin production above the background levels"}, {"measurement": "IL-10 levels (in words)", "setting": "[2]", "value": "did not induce IL-10 above background levels"}]}, {"molecule": "[Cl][Pt-2]([Cl])([Cl])([Cl])([Cl])[Cl].[NH4+].[NH4+]", "note": "[HCPt, Ammonium hexachloroplatinate, reference compound]", "values": [{"measurement": "neopterin release (in words)", "setting": "[1]; RPMI+10% FCS, 24 hrs", "value": "none of the chemicals tested induced any neopterin release above background levels"}]}, {"molecule": "O=[N+]([O-])c1ccc(Cl)c([N+](=O)[O-])c1", "note": "[DNCB, 2,4 Dinitrocholorobenzene, reference compound]", "values": [{"measurement": "neopterin release (in words)", "setting": "[1]; RPMI+10% FCS, 24 hrs", "value": "none of the chemicals tested induced any neopterin release above background levels"}]}, {"molecule": "Oc1ccccc1", "note": "[phenol, reference compound]", "values": [{"measurement": "neopterin response (in words)", "setting": "[1]", "value": "induced a neopterin response above background levels"}]}, {"molecule": "Soy lectin: Lectin: glycine max (soy been) (Medicago), low potential of being allergenic", "values": [{"measurement": "neopterin response (in words)", "setting": "[1]; 6.6 μg/ml, RPMI+10% FCS, 24 hrs, with IFN-γ", "value": "did not induce any neopterin response above the levels of control cells"}, {"measurement": "neopterin response (in words)", "setting": "[1]; 180 μg/ml, RPMI+10% FCS, 24 hrs, with IFN-γ", "value": "comparable to the cellular response towards Ara h 2 at 6.6 μg/ml"}, {"measurement": "neopterin response (in words)", "setting": "[1]; [4]", "value": "Weak cellular neopterin responce"}, {"measurement": "neopterin response (in words)", "setting": "[1]; proteins, RPMI+10% FCS, 24 hrs, with IFN-γ 100 U/ml, over the tested concentrations, listed as soy lectin", "value": "did not induce neopterin above background levels"}]}, {"molecule": "CCOC(=O)c1ccc(N)cc1", "note": "[benzocaine, Benzocaine, reference compound]", "values": [{"measurement": "neopterin response (in words)", "setting": "[1]; chemical at 30 μg/ml, with IFN-γ, RPMI+10% FCS, 24 hrs", "value": "induced a neopterin response above background levels"}]}, {"molecule": "Lipopolysaccharide [LPS]", "values": [{"measurement": "neopterin response (in words)", "setting": "[3]", "value": "Dose response was seen"}]}]}
